Values of other authors in patent US6794359B2, “Vertebrate intestinal protein which absorbs cholesterol, its inhibitors and mehtod of identifying the same” (Aventis Pharma Deutschland GmbH, priority 2000, dated 2004).
Where two headings read alike, the source gives them in different places.

Legend:
[1] = system: intestinal cholesterol absorption; details: rabbits
[2] = system: intestinal cholesterol absorption; details: hamsters
[3] = system: intestinal cholesterol absorption; details: dogs
[4] = system: intestinal cholesterol absorption; details: rhesus monkeys
[5] = system: intestinal cholesterol absorption; details: humans

**Q.** Which results are given for COc1ccc([C@@H]2[C@@H](CCCc3ccccc3)C(=O)N2c2ccc(OC)cc2)cc1 [SCH 48461]?
**A.** inhibition of intestinal cholesterol absorption [1]: very efficiently inhibits; inhibition of intestinal cholesterol absorption [2]: very efficiently inhibits; inhibition of intestinal cholesterol absorption [3]: very efficiently inhibits; inhibition of intestinal cholesterol absorption [4]: very efficiently inhibits; inhibition of intestinal cholesterol absorption [5]: very efficiently inhibits

**Q.** Which “increase of effect on direct comparison” value ([2]; direct comparison with SCH 48461) does the source give for O=C1[C@H](CC[C@H](O)c2ccc(F)cc2)[C@@H](c2ccc(O)cc2)N1c1ccc(F)cc1 [SCH 58235] here?
**A.** 50 fold

**Q.** With CC[C@H](CC[C@@H](C)[C@H]1CC[C@H]2[C@@H]3CC=C4C[C@@H](O)CC[C@]4(C)[C@H]3CC[C@]12C)C(C)C [β-sitosterol] as the molecule, how does the “inhibition of cholesterol absorption” value ([5]; background statement) read?
**A.** an inhibition of cholesterol absorption
